Like-named read-outs stand apart in the source and are kept apart here. Positions of bridges follow the written chain, without caps; N, C: chain ends. Non-standard residues stand in square brackets, D forms with d. Residues, ends and D or L forms follow the SMILES beside them. Nle = CCCC[C@H](N)C(=O)O
What was measured:
Serum stability assay = type: in vitro ADME; details: human serum of healthy donors, lipids removed by centrifugation, 37 °C, peptide 30-60 μM from 10-fold stock in PBS, followed over 48 h, urea/TFA quench, analytical RP-HPLC peak area vs time 0, one-phase decay fit; mean ± SD, n = 2 (pepitem n = 5); read-out: Serum t 1/2 (converted)
Description: Stability of peptides in human serum was measured similarly to that previously described. In short, fresh blood from healthy donors was collected in serum collection tubes (Clot Activator Tube, Becton Dickinson, Plymouth, United Kingdom, […]) and incubated at 4 °C for 2 h to allow blood clotting. The serum was separated by centrifugation at 1000 × g for 10 min. To remove lipids from the serum, an additional centrifugation step was performed at 15,000 × g for 15 min at 4 °C, after which the serum was used for the stability assays. For this, the serum was prewarmed for 10 min at 37 °C before the addition of the test compounds. Peptides were prepared at a 10-fold concentration in PBS and diluted to a final concentration between 60 and 30 μM with the serum. The serum-peptide reaction mix was incubated at 37 °C, and 40 μL aliquots were taken at the indicated time points. To stop the reaction, samples were mixed with 40 μL of 6 M urea for 10 min on ice, followed by precipitation of serum proteins by the addition of 40 μL of 20% TFA and incubation for at least 10 min on ice. The precipitate was pelleted at 15,000 × g for 15 min, and 90 μL of the supernatant was freeze-dried. The dry material was resuspended in HPLC solvent A (0.1% TFA in ddH2O). Peptide quantification was performed using analytical HPLC. The remaining peptide relative to the starting point (time point 0) was calculated by peak integration to determine the area under the peak at the designated time points and further calculated in comparison to time point 0 min, which was set as 100%. To calculate the half-life of the peptides in human serum, data points were fitted with a one-phase decay equation.

[1] = system: memory CD8+ cells (CD3+, CD8+, CD45RO+); type: cell-based, human; details: for % Inhibition of cell migration compared to control, Memory CD8+: normalized to untreated control, mean ± SEM of 4-6 experiments
Description: (§1) Transwell migration assays were performed similarly as published previously. HMEC-1 cells were seeded at a density of 75,000 cells per well in transwell inserts. Three days after cell seeding, the medium was changed, and the cells were stimulated with 100 ng/mL TNF-α and 20 ng/mL IFN-γ for 16–18 h. On the day of the assay, cells were washed with migration medium (serum-free RPMI medium supplemented with 0.1% BSA) to remove residual cytokines and starved for at least 1 h at 37 °C in migration medium. PBMC were starved for at least 1.5 h in migration medium before addition to the EC. For S1P and lifitegrast-treated samples, the PBMC were preincubated for at least 1.5 h at 37 °C with the ligands before addition to the EC. Pepitem and other peptides were added onto the EC monolayer and preincubated for 15–30 min at 37 °C before the addition of the PBMC. 200,000 PBMC per well were added directly on top of the EC prestimulated with pepitem or other peptides to reach a final volume of 150 μL in the donor compartments. The receiver compartments of the wells were filled with 600 μL RPMI with 20% FBS. After 4 h of migration at 37 °C, the receiver compartment with the migrated cells was collected. The migrated cells were stained with the indicated antibodies: CD3-APC (clone: OKT3, lot: B400127), CD4-PE (clone: OKT4. lot: B379180), CD8-FITC (clone: HIT8a, lot: B370193) from Biolegend and CD3-VioGreen (clone: REA613, lot: 5240502518), CD45RO-FITC (clone: REA611, lot: 5240502519), CD4-PerCP-Vio700 (clone: REA623, lot: 5240506702), CXCR3 PE-Vio615 (clone: REA232, lot: 5240506722), CD196-APC (clone: REA190, lot: 5240506717), CD8-APC-Vio770 (clone: REA734, lot: 5240303993) and CD45RO-PEVio616 (clone: REA611, lot: 5231102514) from Miltenyi Biotec (Bergisch Gladbach, Germany) and counted using precision counting beads (Biolegend) on a CytoflexS flow cytometer (BeckmanCoulter). Data was analyzed using CytExpert (Version 2.4). T cells were gated as CD3^+ cells, T cell subsets were gated as CD4^+ (CD3^+, CD4^+), CD8^+ (CD3^+, CD8^+), memory CD4^+ (CD3^+, CD4^+, CD45RO^+), memory CD8^+ (CD3^+, CD8^+, CD45RO^+) and Th1 cells (CD3^+, CD4^+, CXCR3^+, CCR6^–).
(§2) Data were analyzed using GraphPad Prism software. EC50 values were calculated by three-parameter nonlinear regression analysis. For this, the data points were normalized to the number of migrated cells in untreated (buffer) control samples (100%), and the regression was fitted with the top constraint to 100 and the slope fixed to 1. Statistical significance is indicated in graphs as n.s. not significant, * p < 0.05; ** p < 0.01; *** p < 0.001. The statistical tests used are indicated in the respective figure captions.

[2] = system: memory CD4+ cells (CD3+, CD4+, CD45RO+); type: cell-based, human; details: for % Inhibition of cell migration compared to control, Memory CD4+: normalized to untreated control, mean ± SEM of 4-6 experiments
Description: as §1, §2

[3] = system: CD8+ lymphocytes (CD3+, CD8+); type: cell-based, human; details: for % Inhibition of cell migration compared to control, CD8+: normalized to untreated control, mean ± SEM of 4-6 experiments
Description: as §1, §2

[4] = system: CD4+ lymphocytes (CD3+, CD4+); type: cell-based, human; details: for % Inhibition of cell migration compared to control, CD4+: normalized to untreated control, mean ± SEM of 4-6 experiments
Description: as §1, §2

[5] = from the concentration-response experiment

With `CCCC[C@@H]1NC(=O)[C@H](C(C)C)NC(=O)[C@H](CCCCN)NC(=O)[C@@H](NC(=O)[C@H](CCC(N)=O)NC(=O)[C@H](CCC(=O)O)NC(C)=O)CSSC[C@@H](C(=O)N[C@@H](CCC(=O)O)C(=O)N[C@@H](CCCCN)C(N)=O)NC(=O)[C@H](CC(N)=O)NC(=O)[C@H](CC(=O)O)NC(=O)[C@H](CC(C)C)NC(=O)[C@@H]2CSSC[C@H](NC1=O)C(=O)N[C@@H](Cc1ccc(O)cc1)C(=O)N[C@@H](C)C(=O)N[C@@H](CCC(N)=O)C(=O)NCC(=O)N[C@@H](C)C(=O)N[C@@H](CCC(=O)O)C(=O)N[C@@H](CC(C)C)C(=O)N1CCC[C@H]1C(=O)N[C@@H](CCC(=O)O)C(=O)N[C@@H](CC(C)C)C(=O)N[C@@H](CC(C)C)C(=O)N[C@@H](CCCNC(=N)N)C(=O)N[C@@H](CCCNC(=N)N)C(=O)N2` [VhTI-pep 2] (Ac-EQCKV[Nle]CYAQGAELPELLRRCLDNCEK-NH2; disulfide 3-25, 7-21) the half-life (Serum stability assay) was over 48 h, the “% Inhibition of cell migration compared to control, Memory CD8+” value ([1]; 0.1 μM) was 23.0 ± 6.9% and the “% Inhibition of cell migration compared to control, Memory CD8+” value ([1]; 1 μM) was 21.9 ± 8.1%. For the same molecule, the EC50 ([1]; EC monolayer pretreated with peptide, healthy-donor PBMC, 4 h, mean ± SD, 4 independent measurements, read-out: EC50, inhibition of memory CD8+ cell migration) was 6.3 ± 9.7 nM, the “% Inhibition of cell migration compared to control, Memory CD4+” value ([2]; 0.1 μM) was 34.4 ± 16.7% and the “% Inhibition of cell migration compared to control, Memory CD4+” value ([2]; 1 μM) was 31.5 ± 10.4%. For the same molecule, the EC50 ([2]; EC monolayer pretreated with peptide, healthy-donor PBMC, 4 h, mean ± SD, 4 independent measurements, read-out: EC50, inhibition of memory CD4+ cell migration) was 9.8 ± 16.5 nM, the “% Inhibition of cell migration compared to control, CD8+” value ([3]; 0.1 μM) was 37.0 ± 6.4% and the “% Inhibition of cell migration compared to control, CD8+” value ([3]; 1 μM) was 41.7 ± 8.5%. The EC50 ([3]; EC monolayer pretreated with peptide, healthy-donor PBMC, 4 h, mean ± SD, 4 independent measurements, read-out: EC50, inhibition of CD8+ cell migration) was 7.7 ± 11.4 nM, the “maximal effect of inhibition of cell migration, CD8+ lymphocytes” value [3, 5] was 40.0 ± 2.8% and the “% Inhibition of cell migration compared to control, CD4+” value ([4]; 0.1 μM) was 34.3 ± 8.0%. The “% Inhibition of cell migration compared to control, CD4+” value ([4]; 1 μM) was 33.2 ± 6.1%, the EC50 ([4]; EC monolayer pretreated with peptide, healthy-donor PBMC, 4 h, mean ± SD, 4 independent measurements, read-out: EC50, inhibition of CD4+ cell migration) was 10.5 ± 15.9 nM and the “maximal effect of inhibition of cell migration, CD4+ lymphocytes” value [4, 5] was 39.9 ± 12.5%.

From paper PMC12406255, “Engineering Peptide Modulators for T‑Cell Migration by Structural Scaffold Matching” (Journal of Medicinal Chemistry, 2025)
